Test results published in patent publication US12371428B2 (Exelixis, Inc., priority 2019, dated 2025).
Like-named read-outs stand apart in the source and are kept apart here.

Columns and labels:
Type in all cases: cell-based
[1] = target: KDR (phospho-KDR, VEGF165-stimulated HUVEC cells) (Homo sapiens (Human), UniProt P35968); assay: KDR autophosphorylation ELISA in HUVEC cells (Example G); conditions: cellular activity
Summary of the method: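 Read-out: phospho-KDR in cell lysates by DuoSet IC ELISA, normalised between VEGF-stimulated DMSO wells (100%) and unstimulated wells (0%). Human endothelial cells were starved overnight in serum-free medium, exposed to compound for 1 h, and then pulsed with 100 ng/mL VEGF165 for 5 min.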

[2] = target: Mer (phospho-Mer, MERTK-transfected 293A cells) (Homo sapiens (Human), UniProt Q12866); assay: Mer autophosphorylation ELISA in transient transfected 293A cells (Example H); conditions: cellular activity
Chain of Mer (phospho-Mer, MERTK-transfected 293A cells) (Q12866 21-999): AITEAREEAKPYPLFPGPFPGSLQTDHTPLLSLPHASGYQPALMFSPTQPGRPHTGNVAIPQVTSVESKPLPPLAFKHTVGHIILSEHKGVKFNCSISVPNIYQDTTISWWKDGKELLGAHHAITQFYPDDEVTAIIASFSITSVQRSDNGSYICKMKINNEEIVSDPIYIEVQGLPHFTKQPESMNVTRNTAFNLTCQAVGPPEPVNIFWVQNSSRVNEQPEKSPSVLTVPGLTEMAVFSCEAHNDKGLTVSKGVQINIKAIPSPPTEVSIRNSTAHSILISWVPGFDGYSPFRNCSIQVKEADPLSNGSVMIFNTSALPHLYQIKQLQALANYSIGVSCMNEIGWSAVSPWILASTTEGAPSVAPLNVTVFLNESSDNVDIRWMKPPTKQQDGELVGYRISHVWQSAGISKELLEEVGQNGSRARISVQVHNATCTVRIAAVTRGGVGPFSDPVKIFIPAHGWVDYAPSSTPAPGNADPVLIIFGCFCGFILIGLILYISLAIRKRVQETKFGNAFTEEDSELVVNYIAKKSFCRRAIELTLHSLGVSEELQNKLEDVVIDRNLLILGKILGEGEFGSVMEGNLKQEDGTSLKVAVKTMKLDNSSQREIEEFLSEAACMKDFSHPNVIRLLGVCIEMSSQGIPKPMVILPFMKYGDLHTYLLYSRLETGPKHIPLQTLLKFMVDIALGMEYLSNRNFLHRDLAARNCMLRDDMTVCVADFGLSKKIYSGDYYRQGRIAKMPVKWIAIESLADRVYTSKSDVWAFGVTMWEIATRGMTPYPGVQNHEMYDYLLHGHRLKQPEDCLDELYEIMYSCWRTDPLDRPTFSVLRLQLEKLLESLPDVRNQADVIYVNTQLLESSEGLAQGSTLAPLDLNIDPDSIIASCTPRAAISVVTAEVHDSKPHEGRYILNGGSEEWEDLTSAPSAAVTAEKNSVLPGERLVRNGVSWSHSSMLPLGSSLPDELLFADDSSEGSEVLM
Summary of the method: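 IC50 from phospho-Mer ELISA of MERTK-transfected 293A cell lysates after 1 h treatment with serially diluted compound in serum-free medium.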

[3] = target: Met (phospho-Met, HGF-stimulated PC-3 prostate cancer cells) (Homo sapiens (Human), UniProt P08581); assay: Met autophosphorylation ELISA in PC-3 cells (Example F); conditions: cellular activity, read-out: c-Met IC50
Chain of Met (phospho-Met, HGF-stimulated PC-3 prostate cancer cells) (P08581 25-1390): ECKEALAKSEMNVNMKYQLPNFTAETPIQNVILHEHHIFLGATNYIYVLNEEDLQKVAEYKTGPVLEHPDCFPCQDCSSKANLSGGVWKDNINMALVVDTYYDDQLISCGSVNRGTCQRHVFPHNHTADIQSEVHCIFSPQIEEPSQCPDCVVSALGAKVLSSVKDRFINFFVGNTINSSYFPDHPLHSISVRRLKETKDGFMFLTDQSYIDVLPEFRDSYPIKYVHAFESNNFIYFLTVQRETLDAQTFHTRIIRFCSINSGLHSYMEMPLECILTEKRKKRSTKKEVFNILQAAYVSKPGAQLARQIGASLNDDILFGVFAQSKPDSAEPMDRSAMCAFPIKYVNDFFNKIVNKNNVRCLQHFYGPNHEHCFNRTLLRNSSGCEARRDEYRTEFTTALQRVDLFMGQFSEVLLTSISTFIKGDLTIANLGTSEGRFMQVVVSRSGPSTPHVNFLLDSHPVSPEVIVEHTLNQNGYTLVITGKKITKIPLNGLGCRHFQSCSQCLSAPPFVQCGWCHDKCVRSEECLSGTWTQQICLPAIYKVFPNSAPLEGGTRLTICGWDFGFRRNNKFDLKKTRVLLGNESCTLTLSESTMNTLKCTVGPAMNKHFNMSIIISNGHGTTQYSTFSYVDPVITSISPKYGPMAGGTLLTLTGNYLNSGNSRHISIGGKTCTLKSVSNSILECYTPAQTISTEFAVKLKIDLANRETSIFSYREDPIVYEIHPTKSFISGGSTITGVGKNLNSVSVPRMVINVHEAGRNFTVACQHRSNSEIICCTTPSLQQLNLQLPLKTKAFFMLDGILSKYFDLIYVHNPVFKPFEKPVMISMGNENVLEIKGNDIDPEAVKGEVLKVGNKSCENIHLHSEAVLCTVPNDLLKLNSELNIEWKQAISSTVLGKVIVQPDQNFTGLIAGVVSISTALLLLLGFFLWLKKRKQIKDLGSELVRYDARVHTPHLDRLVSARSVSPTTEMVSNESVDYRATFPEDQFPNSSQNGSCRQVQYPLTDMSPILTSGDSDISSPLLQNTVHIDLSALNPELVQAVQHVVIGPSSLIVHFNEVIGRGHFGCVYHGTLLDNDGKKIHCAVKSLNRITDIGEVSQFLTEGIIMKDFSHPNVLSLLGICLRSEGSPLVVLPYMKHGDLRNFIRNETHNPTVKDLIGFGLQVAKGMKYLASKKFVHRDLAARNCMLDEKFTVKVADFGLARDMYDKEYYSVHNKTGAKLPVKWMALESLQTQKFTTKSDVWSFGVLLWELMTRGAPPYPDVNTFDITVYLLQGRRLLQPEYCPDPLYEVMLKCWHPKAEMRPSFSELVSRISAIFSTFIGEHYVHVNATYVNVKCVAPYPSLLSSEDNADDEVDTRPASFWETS
Summary of the method: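 Sandwich ELISA for phospho-Met (panTyr) in PC-3 lysates. Cells starved 3 h serum-free, compound 1 h (8-pt curve, 0.3% DMSO), HGF 100 ng/mL 10 min. 100% = HGF + DMSO; 0% = HGF + reference inhibitor. IC50 by 4-parameter fit.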

[4] = target: AXL (phospho-AXL, Gas6-stimulated A-172 glioblastoma cells) (Homo sapiens (Human), UniProt P30530); assay: AXL autophosphorylation ELISA in A-172 cells (Example E); conditions: cellular activity, read-out: Axl IC50
Chain of AXL (phospho-AXL, Gas6-stimulated A-172 glioblastoma cells) (P30530 26-894): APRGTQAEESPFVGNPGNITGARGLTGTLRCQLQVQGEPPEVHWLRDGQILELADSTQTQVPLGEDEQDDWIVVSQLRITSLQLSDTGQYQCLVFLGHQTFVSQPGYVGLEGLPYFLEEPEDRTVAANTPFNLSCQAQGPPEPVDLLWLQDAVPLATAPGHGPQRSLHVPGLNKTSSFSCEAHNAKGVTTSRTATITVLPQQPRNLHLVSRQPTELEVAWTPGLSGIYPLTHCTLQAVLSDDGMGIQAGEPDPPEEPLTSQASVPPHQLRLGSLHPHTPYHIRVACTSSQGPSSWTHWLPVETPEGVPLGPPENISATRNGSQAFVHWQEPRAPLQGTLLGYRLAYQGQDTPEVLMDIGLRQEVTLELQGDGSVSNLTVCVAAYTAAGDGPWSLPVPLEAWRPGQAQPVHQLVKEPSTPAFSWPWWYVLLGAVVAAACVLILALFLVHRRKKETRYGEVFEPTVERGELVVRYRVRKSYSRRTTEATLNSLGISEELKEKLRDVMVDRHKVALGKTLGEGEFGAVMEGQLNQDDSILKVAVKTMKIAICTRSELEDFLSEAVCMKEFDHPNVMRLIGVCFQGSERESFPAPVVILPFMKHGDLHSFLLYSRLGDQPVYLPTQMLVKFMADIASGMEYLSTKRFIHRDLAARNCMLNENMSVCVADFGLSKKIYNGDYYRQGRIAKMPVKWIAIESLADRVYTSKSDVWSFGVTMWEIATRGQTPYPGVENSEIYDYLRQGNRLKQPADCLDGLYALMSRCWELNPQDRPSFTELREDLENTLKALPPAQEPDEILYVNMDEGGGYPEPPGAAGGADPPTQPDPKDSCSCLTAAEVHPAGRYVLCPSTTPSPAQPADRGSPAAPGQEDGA
Summary of the method: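 Phospho-AXL was measured by ELISA in lysates of Gas6-stimulated A-172 cells, starved 24 h in serum-free medium and exposed 1 h to an 8-point compound dilution at 0.3% DMSO.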

[5] = KDR autophosphorylation ELISA in HUVEC cells
[6] = Mer autophosphorylation ELISA in transient transfected 293A cells
[7] = Met autophosphorylation ELISA in PC-3 cells
[8] = AXL autophosphorylation ELISA in A-172 cells

Chain of KDR (phospho-KDR, VEGF165-stimulated HUVEC cells) (P35968 20-1356): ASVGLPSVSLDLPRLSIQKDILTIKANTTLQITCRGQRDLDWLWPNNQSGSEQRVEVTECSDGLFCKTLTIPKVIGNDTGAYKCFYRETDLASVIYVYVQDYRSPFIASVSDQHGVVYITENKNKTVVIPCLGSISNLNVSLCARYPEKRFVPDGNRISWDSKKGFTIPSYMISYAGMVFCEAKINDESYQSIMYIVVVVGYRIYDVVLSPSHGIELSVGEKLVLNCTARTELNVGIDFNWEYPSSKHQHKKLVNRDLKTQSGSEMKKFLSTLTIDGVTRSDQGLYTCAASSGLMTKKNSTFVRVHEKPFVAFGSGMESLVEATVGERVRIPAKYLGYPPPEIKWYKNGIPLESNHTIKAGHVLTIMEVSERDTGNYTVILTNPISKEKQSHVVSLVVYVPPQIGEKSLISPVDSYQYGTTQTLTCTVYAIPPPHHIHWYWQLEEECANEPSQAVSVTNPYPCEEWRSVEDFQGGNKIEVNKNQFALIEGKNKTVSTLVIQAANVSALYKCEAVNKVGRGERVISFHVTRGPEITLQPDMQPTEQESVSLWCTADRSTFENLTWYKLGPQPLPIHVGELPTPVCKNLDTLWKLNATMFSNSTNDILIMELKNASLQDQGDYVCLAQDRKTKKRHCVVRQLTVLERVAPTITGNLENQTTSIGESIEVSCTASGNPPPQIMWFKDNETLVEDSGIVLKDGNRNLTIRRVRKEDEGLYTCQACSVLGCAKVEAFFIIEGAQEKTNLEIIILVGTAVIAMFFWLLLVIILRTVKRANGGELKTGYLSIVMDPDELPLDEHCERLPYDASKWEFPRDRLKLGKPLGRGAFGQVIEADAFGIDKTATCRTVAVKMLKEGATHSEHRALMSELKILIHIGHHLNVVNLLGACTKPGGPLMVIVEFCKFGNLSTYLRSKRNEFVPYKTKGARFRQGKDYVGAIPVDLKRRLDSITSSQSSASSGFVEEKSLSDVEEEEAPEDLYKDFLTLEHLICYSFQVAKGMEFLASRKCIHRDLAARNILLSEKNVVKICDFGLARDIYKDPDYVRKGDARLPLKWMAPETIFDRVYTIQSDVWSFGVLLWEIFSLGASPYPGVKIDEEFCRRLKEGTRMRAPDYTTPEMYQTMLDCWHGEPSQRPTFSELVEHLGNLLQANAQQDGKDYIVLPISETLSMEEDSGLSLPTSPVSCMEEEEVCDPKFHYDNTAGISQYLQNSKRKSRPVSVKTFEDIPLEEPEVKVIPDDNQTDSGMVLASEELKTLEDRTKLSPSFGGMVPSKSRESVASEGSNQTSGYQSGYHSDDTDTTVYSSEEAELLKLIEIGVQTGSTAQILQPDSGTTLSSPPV

SMILES | IC50 [1, 5] [nM] | IC50 [2, 6] [nM] | IC50 [3, 7] [nM] | IC50 [4, 8] [nM] | IC50 ([1]; HUVEC cells) [nM] | IC50 ([2]; transfected 293A cells) [nM] | IC50 ([3]; PC-3 cells) [nM] | IC50 ([4]; A-172 cells) [nM]
C=C(C)c1cnc2c(Oc3ccc(NC(=O)c4cnc(C)n(-c5ccc(F)cc5)c4=O)cc3F)ccnc2c1 [Compound 465, 1-(4-fluorophenyl)-N-[3-fluoro-4-[(7-prop-1-en-2-yl-1,5-naphthyridin-4-yl)oxy]phenyl]-2-methyl-6-oxopyrimidine-5-carboxamide] | 100 to 300 | < 100 | < 100 | < 100 | – | – | – | –
COc1cc2nccc(Oc3ccc(NC(=O)c4n[nH]c(C)c(-c5ccc(F)cc5)c4=O)cc3)c2nc1OC [Compound 253, N-[4-[(6,7-Dimethoxy-1,5-naphthyridin-4-yl)oxy]phenyl]-5-(4-fluorophenyl)-6-methyl-4-oxo-1H-pyridazine-3-carboxamide] | < 100 | < 100 | < 100 | < 100 | – | – | – | –
COc1cc2nccc(Oc3ccc(NC(=O)c4c(C)c(C(C)=O)c(C)n(-c5ccc(F)cc5)c4=O)cc3)c2nc1OC [Compound 322, 5-Acetyl-N-[4-[(6,7-dimethoxy-1,5-naphthyridin-4-yl)oxy]phenyl]-1-(4-fluorophenyl)-4,6-dimethyl-2-oxopyridine-3-carboxamide] | 100 to 300 | < 100 | < 100 | < 100 | – | – | – | –
COCCOc1cc2nccc(Oc3ccc(NC(=O)c4ccc(C)n(-c5ccc(F)cc5)c4=O)cc3F)c2nc1OC [Compound 484, N-[3-fluoro-4-[[6-methoxy-7-(2-methoxyethoxy)-1,5-naphthyridin-4-yl]oxy]phenyl]-1-(4-fluorophenyl)-6-methyl-2-oxopyridine-3-carboxamide] | < 100 | < 100 | < 100 | < 100 | – | – | – | –
COc1cnc2c(Oc3ccc(NC(=O)c4c(C)ccn(-c5ccc(F)cc5C)c4=O)cc3F)ccnc2c1 [Compound 334, N-[3-fluoro-4-[(7-methoxy-1,5-naphthyridin-4-yl)oxy]phenyl]-1-(4-fluoro-2-methylphenyl)-4-methyl-2-oxopyridine-3-carboxamide] | < 100 | < 100 | < 100 | 100 to 300 | – | – | – | –
COCc1nc(C)c(-c2ccc(F)cc2C)c(O)c1C(=O)Nc1ccc(Oc2ccnc3cc(C)c(OC)nc23)c(F)c1 [Compound 470, N-[3-fluoro-4-[(6-methoxy-7-methyl-1,5-naphthyridin-4-yl)oxy]phenyl]-5-(4-fluoro-2-methylphenyl)-4-hydroxy-2-(methoxymethyl)-6-methylpyridine-3-carboxamide] | < 100 | < 100 | < 100 | < 100 | – | – | – | –
COc1nc2c(Oc3ccc(NC(=O)c4n[nH]c(C)c(-c5ccc(F)cc5C)c4=O)cc3F)ccnc2cc1C [Compound 473, N-[3-fluoro-4-[(6-methoxy-7-methyl-1,5-naphthyridin-4-yl)oxy]phenyl]-5-(4-fluoro-2-methylphenyl)-6-methyl-4-oxo-1H-pyridazine-3-carboxamide] | > 300 | < 100 | > 300 | < 100 | – | – | – | –
Cc1cc2nccc(Oc3ccc(NC(=O)c4c(C)nc(C)c(-c5ccc(F)cc5)c4O)cc3F)c2nc1F [Compound 445, N-[3-fluoro-4-[(6-fluoro-7-methyl-1,5-naphthyridin-4-yl)oxy]phenyl]-5-(4-fluorophenyl)-4-hydroxy-2,6-dimethylpyridine-3-carboxamide] | < 100 | < 100 | < 100 | < 100 | – | – | – | –

Further lines, results first:

IC50 [1, 5] [nM] | IC50 [2, 6] [nM] | IC50 [3, 7] [nM] | IC50 [4, 8] [nM] | IC50 ([1]; HUVEC cells) [nM] | IC50 ([2]; transfected 293A cells) [nM] | IC50 ([3]; PC-3 cells) [nM] | IC50 ([4]; A-172 cells) [nM] | SMILES
< 100 | < 100 | < 100 | < 100 | – | – | – | – | COc1cc2nccc(Oc3ccc(NC(=O)c4c[nH]c(=S)n(-c5ccc(F)cc5)c4=O)cc3F)c2cc1OC [Compound 646, N-[4-(6,7-dimethoxyquinolin-4-yl)oxy-3-fluorophenyl]-3-(4-fluorophenyl)-4-oxo-2-sulfanylidene-1H-pyrimidine-5-carboxamide]
< 100 | < 100 | < 100 | < 100 | – | – | – | – | COc1cnc2c(Oc3ccc(NC(=O)c4cnc(C)c(-c5ccc(F)c(C)c5)c4O)cc3F)ccnc2c1 [Compound 701, N-[3-fluoro-4-[(7-methoxy-1,5-naphthyridin-4-yl)oxy]phenyl]-5-(4-fluoro-3-methylphenyl)-4-hydroxy-6-methylpyridine-3-carboxamide]
< 100 | < 100 | 100 to 300 | > 300 | – | – | – | – | COc1cnc2c(Oc3ccc(NC(=O)c4c(C)nc(C)c(-c5ccc(OC)c(F)c5)c4O)cc3F)ccnc2c1 [Compound 693, N-[3-fluoro-4-[(7-methoxy-1,5-naphthyridin-4-yl)oxy]phenyl]-5-(3-fluoro-4-methoxyphenyl)-4-hydroxy-2,6-dimethylpyridine-3-carboxamide]
> 300 | < 100 | < 100 | < 100 | – | – | – | – | COCc1nc(C)c(Br)c(O)c1C(=O)Nc1ccc(Oc2ccnc3cc(OC)c(OC)nc23)c(F)c1 [Compound 535, 5-bromo-N-[4-[(6,7-dimethoxy-1,5-naphthyridin-4-yl)oxy]-3-fluorophenyl]-4-hydroxy-2-(methoxymethyl)-6-methylpyridine-3-carboxamide]
> 300 | < 100 | < 100 | < 100 | – | – | – | – | COc1cnc2c(Oc3ccc(NC(=O)c4c5n(c(C)c(-c6ccc(F)cc6)c4=O)CCOC5)cc3F)ccnc2c1 [Compound 783, N-[3-fluoro-4-[(7-methoxy-1,5-naphthyridin-4-yl)oxy]phenyl]-7-(4-fluorophenyl)-6-methyl-8-oxo-3,4-dihydro-1H-pyrido[2,1-c][1,4]oxazine-9-carboxamide]
< 100 | < 100 | < 100 | < 100 | – | – | – | – | COCCOc1cnc2c(Oc3ccc(NC(=O)c4c(C)nc(C)c(-c5ccc(F)cc5C)c4O)cc3F)ccnc2c1 [Compound 683, N-[3-fluoro-4-[[7-(2-methoxyethoxy)-1,5-naphthyridin-4-yl]oxy]phenyl]-5-(4-fluoro-2-methylphenyl)-4-hydroxy-2,6-dimethylpyridine-3-carboxamide]
> 300 | < 100 | < 100 | < 100 | – | – | – | – | COc1cc2nccc(Oc3ccc(NC(=O)c4c(OC)c(C(C)=O)cn(-c5ccc(F)cc5)c4=O)cc3F)c2nc1OC [Compound 754, 5-acetyl-N-[4-[(6,7-dimethoxy-1,5-naphthyridin-4-yl)oxy]-3-fluorophenyl]-1-(4-fluorophenyl)-4-methoxy-2-oxopyridine-3-carboxamide]
< 100 | < 100 | < 100 | 100 to 300 | – | – | – | – | COc1ccc(-c2c(C)nc(C)c(C(=O)Nc3ccc(Oc4ccnc5cc(OC)cnc45)c(F)c3)c2O)c(F)c1 [Compound 691, N-[3-fluoro-4-[(7-methoxy-1,5-naphthyridin-4-yl)oxy]phenyl]-5-(2-fluoro-4-methoxyphenyl)-4-hydroxy-2,6-dimethylpyridine-3-carboxamide]
> 300 | < 100 | < 100 | < 100 | – | – | – | – | COc1cnc2c(Oc3ccc(NC(=O)c4cnc(C5CC5)c(-c5ccc(F)cc5)c4O)cc3F)ccnc2c1 [Compound 658, 6-cyclopropyl-N-[3-fluoro-4-[(7-methoxy-1,5-naphthyridin-4-yl)oxy]phenyl]-5-(4-fluorophenyl)-4-hydroxypyridine-3-carboxamide]
> 300 | 100 to 300 | > 300 | > 300 | – | – | – | – | COc1cnc2c(Oc3ccc(NC(=O)c4c(C)nc(C)c(-c5ccc(C(C)C)cc5)c4O)cc3F)ccnc2c1 [Compound 690, N-[3-fluoro-4-[(7-methoxy-1,5-naphthyridin-4-yl)oxy]phenyl]-4-hydroxy-2,6-dimethyl-5-(4-propan-2-ylphenyl)pyridine-3-carboxamide]
100 to 300 | < 100 | < 100 | < 100 | – | – | – | – | COc1cc2c(Oc3ccc(NC(=O)c4cnc(C)n(-c5ccc(F)cc5)c4=O)cc3F)ccnc2cn1 [Compound 499, N-[3-fluoro-4-[(6-methoxy-1,7-naphthyridin-4-yl)oxy]phenyl]-1-(4-fluorophenyl)-2-methyl-6-oxopyrimidine-5-carboxamide]
– | – | – | – | < 100 | < 100 | < 100 | < 100 | COc1cnc2c(Oc3ccc(NC(=O)c4c(C)n(CC(F)F)cc(-c5ccc(F)cc5OC)c4=O)cc3F)ccnc2c1 [Compound 811, 1-(2,2-difluoroethyl)-N-[3-fluoro-4-[(7-methoxy-1,5-naphthyridin-4-yl)oxy]phenyl]-5-(4-fluoro-2-methoxyphenyl)-2-methyl-4-oxopyridine-3-carboxamide]
